Measured values published in US20120156185A1, “NUTRITIONAL COMPOSITIONS COMPRISING CITRUS FIBERS” (HERBAMED LTD., priority 2009, published 2012).
Several values for one entry are separate records, joined by “and”; a condition that tells them apart may be missing. Equal entries are not always repeated.

Assay: Oxygen radical absorbance capacity (ORAC) assay
Procedure: ORAC assay for fresh orange crush and dry flake extracts was carried out following the modified procedure of the method previously described by Prior et al (Prior R L. et al. 2003. J Agric Food Chem 5, 3273-3279). This assay measures the ability of antioxidant components in test materials to inhibit the decline in disodium fluorescein (FL) fluorescence that is induced by the peroxyl radical generator 2′,2′-Azobis (2-amidinopropane) dihydrochloride (AAPH). The reaction was obtained on fluorescent plate reader (Synergy HT, Bio-Tek Instruments, Winooski, Vt., USA). The mixture contained in the final assay mixture 200 μL of total volume, FL, 120 μL, […] and AAPH, 60 μL 32 mM final concentration. All reagents were prepared with 75 mM phosphate buffer, pH 7.4. FL, phosphate buffer and samples were pre-incubated at 37° C. for 15 min. The reaction was started by the addition of AAPH. Fluorescence was measured and recorded every 1.5 min at excitation length of 485 nm and emission length of 535 nm, until the fluorescence of the last reading declined to a value of less than or equal to 5% of the first reading. Phosphate buffer was used as a blank and 2.5-40 μM trolox were used as positive control standards. The final ORAC values were calculated by using a regression equation between the trolox concentration and the net area under the FL decay curve and were expressed as trolox equivalents (TE) as μmole per 100 g of fresh weight (FW) or dry weight (DW).
In both compounds the measured inhibition time was directly proportional to the concentration of the antioxidant. In the tasted concentration range 2.5, 5.0, 10.0 μM of trolox the Tinh were 14.6, 20.9, and 25.5 respectively. For comparison Tinh for 2.5, 5.0, 10.0 μM of hesperidin were 26.8, 45.0 and 62.5 min respectively. […] In ORAC assay Tinh measures the ability of antioxidant components in test materials to inhibit the decline in disodium fluorescein (FL) fluorescence that is induced by the peroxyl radical generator 2′,2′-Azobis (2-amidinopropane) dihydrochloride (AAPH). Tinh for 10 μM of hesperidin and 10 μM of trolox were 62.5 and 23.5 min respectively. […] Higher correlation was observed between Hesperidin concentration and its antioxidant capacity.

**Q.** Which “Tinh (inhibition time, antioxidant capacity)” value (2.5 μM) does the source give for Cc1c(C)c2c(c(C)c1O)CCC(C)(C(=O)O)O2 (stereo not drawn) [trolox, 6-hydroxy-2,5,7,8,-tetramethylchroman-2-carboxylic acid] here?
**A.** 14.6 min

**Q.** What about the “Tinh (inhibition time, antioxidant capacity)” value (5.0 μM) of the same molecule?
**A.** 20.9 min

**Q.** What about the “Tinh (inhibition time, antioxidant capacity)” value (10 μM) of the same molecule?
**A.** 25.5 min and 23.5 min

**Q.** With COc1ccc([C@@H]2CC(=O)c3c(O)cc(O[C@@H]4O[C@H](CO[C@@H]5O[C@@H](C)[C@H](O)[C@@H](O)[C@H]5O)[C@@H](O)[C@H](O)[C@H]4O)cc3O2)cc1O [hesperidin] as the molecule, how does the “Tinh (inhibition time, antioxidant capacity)” value (2.5 μM) read?
**A.** 26.8 min

**Q.** And the “Tinh (inhibition time, antioxidant capacity)” value (5.0 μM)?
**A.** 45.0 min

**Q.** What about the “Tinh (inhibition time, antioxidant capacity)” value (10 μM) of the same molecule?
**A.** 62.5 min
